Each block holds one molecule with its values, some of them ahead of it.
What was measured:
[1] = test system: intracellular nonspecific esterase; assay: Flow cytometer (FACSCalibur) population average KMAPP and VMAX of FDA hydrolysis; type: cell-based, human
Protocol: Methods Cell Biol (1994) 41: 469-508. Four means of intracellular fluorescence intensities (IFI) were calculated from data accumulated along four time gates of 25 second each and 30 seconds apart, from which V0 was extracted. This process was sequentially performed on five different aliquots of cells (50 μl, at a concentration of 6×10^6 cells/ml) each exposed to different FDA concentrations (0.3, 0.6, 1.2, 1.8 and 2.4 μM. Introducing these average V0 in values Eq. 8 yielded population average KMAPP and VMAX of 2.16 μM and 4.32 μM and 6.6 and 5.83 in cells incubated with and without PHA. It should be noted that while KMAPP is an intrinsic value, VMAX depends on the optoelelctronic arrangement under use. Thus, obviously, at the population level, measurements carried out both on FC and average calculated from individual cell KMAPP measurement data yield similar KMAPP values, indicating the validity of the invented methodology.

[2] = test system: intracellular nonspecific esterase; assay: Individual-cell sequential FDA hydrolysis (KMAPP, VMAX) on CS-S cytometer; type: cell-based, human; settings: different cell carriers
[3] = test system: intracellular nonspecific esterase; assay: as above; type: cell-based, human; settings: for FI rate ratios of the same trapped cells sequentially exposed to different FDA concentrations: same cell carrier; for average KMAPP / average VMAX: average of individual cells
Protocol: Measuring Intracellular Nonspecific Esterase Activity in a Single Lymphocyte Using Fluorescein-Diacetate (FDA) as the Substrate.
Phytohemagglutinin PHA (HA15, Murex Biotech) was reconstituted in 5 ml of double-distilled water and further diluted ten times. For stimulation, 10 μl of this solution was added to a 90 μl cell suspension (7×10^6 cells/ml).
A staining solution of 3.6 μM FDA (Riedel-de Haen Ag. Seelze-Hanover) in Dulbecco Phosphate Buffered Saline (PBS, Biological Industries) was prepared as follows: 50 mg of FDA was dissolved in 5 ml of DMSO (Sigma). 7.5 μl of this solution was added to 50 ml PBS. For 0.6, 1.2 and 2.4 μM the solution was further diluted in PBS.
30 Heparinized blood (30 ml), was taken from healthy, normal volunteers. The procedure for separating the PBMC has been described in detail, elsewhere [Sunray M, Deutsch M, Kaufman M, Tirosh R, Weinreb A, and Rachmani H. Cell Activation influences cell staining linetics, Spectrochimica Acta A (1997) 53:1645-1653]. Shortly after removing the iron absorbing cells, the remaining cells are layered on a two-layer (100% and 80%) cell density gradient (Ficoll Paque, Pharmacia 1.077 g/ml) and centrifuged. The cells accumulated at the interface between the two Ficoll layers, were collected and kept at 37° C. in 5 ml of enriched culture medium overnight. The next day the PBMC were washed and resuspended in PBS at a final concentration of 7·10^6 cells/ml. More than 70% of the cells were defined as T lymphocytes and viability, which was determined using eosin, was always higher than 90%.
Freshly prepared PBMC (7·10^6 cells/ml) were incubated at 37° C., 5% CO2 with 5 μgr/ml PHA for 30 minutes. PBMC controls were incubated without PHA under identical conditions.
The multiparametric, computerized, discrete cytometer CS-S used in performing this example was described in detail in the above specified US Patents. Its central feature is a cell carrier (CC) incorporating a 100×100 dimensional array having a conical cross-section with an upper opening of ˜7 μm and lower opening of ·4 μm, each approximately 20 μm apart, in which individual cells are trapped. The cell carrier is mounted on a computer-controlled stage that enables repeated multi-scanning of the same cells.
Loading the cells in wells traps on the Cell Carrier (CC) was carried out, as described in Deutsch M, and Weinreb A., Apparatus for High Precision Repetitive Sequential Optical Measurement of Living Cells, Cytometry (1994) 16: 214-226. An aliquot of 80 μl of unstained cell suspension (7×10^6 cells/ml) was loaded on the CC. Initial scanning was then performed in order to detect individual cell background scattering and auto-fluorescence. This undesired signal is recorded per measurement location and subtracted from the total emission signal (after exposure) in order to obtain the correct fluorescence signal.
For fluorescence intensity FI(t) measurements, trapped cells on the CC were sequentially exposed to increasing concentrations of FDA in PBS staining solutions.
Following background measurement, the volume of PBS, which covers the cells, was pumped out and the following procedure was carried out:
At time point zero, 40 μl of the lowest substrate concentration solution was applied on top of the trapped cells and a pre-chosen cell field was sequentially scanned 6 times. This yielded 6 accurately timed FI data points per each individual cell at a given dye concentration. FI is usually measured utilizing epi-fluoescence optical arrangement which permits the differentiation between the excitation energy and the emitted fluorescence energy to be detected by photomultipliers, CCD detectors etc.
The above procedure is repeated for each different substrate solution used in the experiment.
This yielded six FI data points for each individual cell, per substrate concentration, from which V was extracted and the individual cell KMAPP and VMAX values were calculated. […]

[4] = test system: Peripheral blood lymphocytes; settings: individual cell, FDA staining before and after incubation at 37° C., FIG. 7
Protocol: Peripheral blood lymphocytes were loaded on a CC, and exposed to FDA, after which individual FI(t) was measured. […] At the end of incubation, the same cells were again exposed to the same FDA concentration and FI(t) measurements were again performed.
Since cells are in general heterogeneous, one would expect a distribution of FI(t) rates (slopes) in the same experiment. […] Thus, in such an experimental procedure, the determining parameter is the ratio between the initial and the final slopes, namely, the ratios between FI(t) slopes prior to and after incubation (with and without drugs), as well as ratios of individual KMAPP and VMAX prior to and after incubation.

[5] = FDA substrate, cells incubated without PHA
[6] = 1.2/0.6 μM FDA (concentration ratio 2.0)
[7] = 2.4/0.6 μM FDA (concentration ratio 4.0)
[8] = 3.6/0.6 μM FDA (concentration ratio 6.0)
[9] = FDA substrate, cells incubated without PHA, CS-S
[10] = PHA-incubated vs control cells, CS-S

- population average KMAPP [1, 5]: 4.32 µM
- population average VMAX [1, 5]: 5.83
Molecule: CC(=O)Oc1ccc2c(c1)Oc1cc(OC(C)=O)ccc1C21OC(=O)c2ccccc21 [FDA, Fluorescein-Diacetate]
- FI rate ratios of cells parallely exposed to different FDA concentrations [2, 6]: 1.9
- FI rate ratios of cells parallely exposed to different FDA concentrations [2, 7]: 4.4
- FI rate ratios of cells parallely exposed to different FDA concentrations [2, 8]: 6.2
- FI rate ratios of the same trapped cells sequentially exposed to different FDA concentrations [3, 6]: 2.1
- FI rate ratios of the same trapped cells sequentially exposed to different FDA concentrations [3, 7]: 3.6
- FI rate ratios of the same trapped cells sequentially exposed to different FDA concentrations [3, 8]: 5.6
- average KMAPP [3, 9]: 4.88 µM
- average VMAX [3, 9]: 695 intensity/sec

Molecule: OO [H2O2, hydrogen peroxide]
- ratio pre to post treatment slopes (FI rate), control cells relative to treated cells [4]: double

Molecule: Phytohemagglutinin [PHA]
- population average VMAX ([1]; cells incubated with PHA): 6.6
- population average KMAPP ([1]; cells incubated with PHA, FDA 0.3-2.4 μM): 2.16 µM
- decrease in KMAPP compared to the control [3, 10]: 69%
- decrease in VMAX compared to the control [3, 10]: 6%
- average KMAPP ([3]; cells incubated with PHA, FDA substrate 0.6-3.6 μM, CS-S): 1.50 µM
- average VMAX ([3]; cells incubated with PHA, FDA substrate, CS-S): 652 intensity/sec

From patent publication US20030211458A1, “Measurements of enzymatic activity in a single, individual cell in population” (priority 2000, published 2003)
